Consider 13 molecules from patent US20260297081A1, “COMPOUNDS AND METHODS OF TREATING CANCERS” (Cullgen Inc., priority 2023, published 2026).

Holding throughout (type): cell-based
Assay [1] deals with T1, CDK4 (Homo sapiens, UniProt P11802+Q16531). Description: HiBiT detection of HiBiT-tagged CDK4 protein level in MCF7 cells, 16 hours (Table 8). Set-up: expressed in transfected cells; host or cells: MCF7. The note with it: MCF7 cells stably expressing HiBiT tagged target proteins; for activity at 0.01 µM: 10 nM, read-out: % CDK4 Relative Level (10 nM); for activity at 0.1 µM: 100 nM, read-out: % CDK4 Relative Level (100 nM). On the procedure:
HiBiT detection system quantitatively measures total amounts of HiBiT-tagged proteins using a luminescent based method. MCF7 cells stably expressing HiBiT tagged target proteins were treated with heterobifunctional compounds at indicated concentrations for 16 hours, then lysed with Nano-Glo HiBiT Lytic detection reagents.
Target sequence in this assay (P11802 whole entry): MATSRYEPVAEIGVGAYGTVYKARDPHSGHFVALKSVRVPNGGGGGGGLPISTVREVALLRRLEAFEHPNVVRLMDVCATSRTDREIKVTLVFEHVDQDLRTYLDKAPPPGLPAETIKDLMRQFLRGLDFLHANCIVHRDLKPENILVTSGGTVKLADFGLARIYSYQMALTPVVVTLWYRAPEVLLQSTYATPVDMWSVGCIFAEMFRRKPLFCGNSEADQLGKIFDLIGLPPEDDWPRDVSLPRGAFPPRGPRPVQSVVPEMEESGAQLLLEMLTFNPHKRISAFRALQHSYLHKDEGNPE
Target sequence in this assay (P24385 whole entry partner): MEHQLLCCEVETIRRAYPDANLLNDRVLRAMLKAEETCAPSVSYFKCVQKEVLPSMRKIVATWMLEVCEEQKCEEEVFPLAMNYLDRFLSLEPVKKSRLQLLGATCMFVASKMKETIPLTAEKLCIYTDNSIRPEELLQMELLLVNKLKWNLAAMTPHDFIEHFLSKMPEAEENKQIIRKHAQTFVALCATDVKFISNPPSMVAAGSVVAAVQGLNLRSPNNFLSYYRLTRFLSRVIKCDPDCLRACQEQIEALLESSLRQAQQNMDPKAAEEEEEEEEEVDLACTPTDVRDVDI
Target sequence in this assay (Q16531 2-1140 limits assumed): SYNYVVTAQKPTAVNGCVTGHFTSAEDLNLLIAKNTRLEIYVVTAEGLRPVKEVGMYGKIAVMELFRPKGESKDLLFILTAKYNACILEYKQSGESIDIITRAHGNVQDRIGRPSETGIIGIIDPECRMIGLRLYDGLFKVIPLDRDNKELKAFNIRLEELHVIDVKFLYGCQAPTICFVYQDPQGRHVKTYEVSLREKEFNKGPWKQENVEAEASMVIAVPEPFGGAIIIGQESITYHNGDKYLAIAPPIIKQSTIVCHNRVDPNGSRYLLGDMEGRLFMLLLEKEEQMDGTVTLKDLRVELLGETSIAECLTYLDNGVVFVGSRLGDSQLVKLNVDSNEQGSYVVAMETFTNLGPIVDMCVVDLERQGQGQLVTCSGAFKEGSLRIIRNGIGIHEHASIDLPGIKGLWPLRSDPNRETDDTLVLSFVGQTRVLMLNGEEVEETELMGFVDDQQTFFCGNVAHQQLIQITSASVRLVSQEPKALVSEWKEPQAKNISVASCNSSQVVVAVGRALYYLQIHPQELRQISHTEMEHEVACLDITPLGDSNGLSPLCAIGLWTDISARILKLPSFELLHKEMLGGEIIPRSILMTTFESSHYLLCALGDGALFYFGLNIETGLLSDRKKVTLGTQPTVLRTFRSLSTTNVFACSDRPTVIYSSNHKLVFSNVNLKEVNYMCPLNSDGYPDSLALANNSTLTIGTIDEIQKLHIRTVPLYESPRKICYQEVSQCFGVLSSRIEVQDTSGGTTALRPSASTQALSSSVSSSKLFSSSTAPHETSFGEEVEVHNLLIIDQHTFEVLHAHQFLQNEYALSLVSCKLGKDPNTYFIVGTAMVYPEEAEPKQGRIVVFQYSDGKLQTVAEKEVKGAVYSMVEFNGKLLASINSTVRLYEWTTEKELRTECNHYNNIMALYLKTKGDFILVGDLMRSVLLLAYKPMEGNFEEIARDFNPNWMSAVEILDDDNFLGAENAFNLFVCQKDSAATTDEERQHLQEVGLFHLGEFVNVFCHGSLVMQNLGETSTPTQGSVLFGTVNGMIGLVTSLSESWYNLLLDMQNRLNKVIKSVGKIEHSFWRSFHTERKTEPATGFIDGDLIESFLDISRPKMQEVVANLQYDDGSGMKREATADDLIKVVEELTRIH

Assay [2] has as its system MCF7 cells. Description: Anti-proliferation (viability) of MCF7 cells (Table 7, FIG. 2B). The note with it: Homo sapiens, MCF7, MCF7 cells, 3-6 days, 10-point serial dilution; read-out: GI IC50 in MCF-7.
Assay [3] relates to Calu-1 cells. Description: Anti-proliferation (viability) of NSCLC Calu-1 cells, 3 days (Table 7, FIG. 2B). The note with it: Homo sapiens, 72 h; Calu-1 cells, 3 days, 10-point serial dilution; read-out: GI IC50 in Calu-1. In short, it runs like this: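 Viability after a 10-point dilution series of heterobifunctional compounds, with exposure of 6 days for ER+ breast T47D cells and 3 days for NSCLC Calu-1 cells.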

For assay [4], the target named is T1, CDK4. The assay can be described thus: CDK4 percentage degradation in Calu-1 cells (Table 6). Also noted: Cells that express cyclin D1-3 and CDK4/6 proteins were treated with heterobifunctional compounds; endogenous in cells; host or cells: Calu-1. The note with it: 16 hours; for inhibition at 0.04 µM: 40 nM; for inhibition at 0.2 µM: 200 nM. A digest of the protocol:
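Percentage degradation of Cyclin D1 and CDK4 derived from densitometry of ECL Western blots on lysates of Calu-1 cells. Treatment was 16 h with compound at either 40 nM or 200 nM.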
Target sequence in this assay (P11802 2-303 limits assumed): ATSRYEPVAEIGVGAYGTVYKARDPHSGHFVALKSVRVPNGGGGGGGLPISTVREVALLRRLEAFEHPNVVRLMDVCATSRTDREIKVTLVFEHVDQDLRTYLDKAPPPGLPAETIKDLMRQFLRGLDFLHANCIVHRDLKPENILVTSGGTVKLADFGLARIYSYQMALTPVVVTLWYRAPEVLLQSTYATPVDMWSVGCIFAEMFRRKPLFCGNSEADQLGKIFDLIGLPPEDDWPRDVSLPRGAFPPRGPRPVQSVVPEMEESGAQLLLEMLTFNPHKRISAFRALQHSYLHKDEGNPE
Target sequence in this assay (P24385 whole entry partner): as the sequence (P24385 whole entry partner) above
Target sequence in this assay (Q16531 2-1140 limits assumed): as the sequence (Q16531 2-1140 limits assumed) above

By IC50 is commonly meant the concentration at which inhibition is half-maximal. For the molecule `CC(=O)c1c(C)c2cnc(Nc3ccc(CN4CCN(CC(=O)NC5CCC(Nc6nc(NC(C)C)ccc6C(=O)Nc6ccc(N(C)C)nn6)C5)CC4)cn3)nc2n(C2CCCC2)c1=O` (stereo not shown) [CPD-501, 2-((3-(2-(4-((6-((6-acetyl-8-cyclopentyl-5-methyl-7-oxo-7,8-dihydropyrido[2,3-d]pyrimidin-2-yl)amino)pyridin-3-yl)methyl)piperazin-1-yl)acetamido)cyclopentyl)amino)-N-(6-(dimethylamino)pyridazin-3-yl)-6-(isopropylamino)nicotinamide], in assay [1], the activity at 0.01 µM was more than 85% and the activity at 0.1 µM is more than 85%. In assay [2], the IC50 was less than 50 nM. Moreover, the IC50 in assay [3] is not above 10 nM.

Take `CC(=O)c1c(C)c2cnc(Nc3ccc(CN4CCN(CC(=O)N5CCC6(CCC(Nc7nc(NC(C)C)ccc7C(=O)Nc7ccc(N(C)C)nn7)C6)C5)CC4)cn3)nc2n(C2CCCC2)c1=O` (stereo not shown) [CPD-487, 2-((2-(2-(4-((6-((6-acetyl-8-cyclopentyl-5-methyl-7-oxo-7,8-dihydropyrido[2,3-d]pyrimidin-2-yl)amino)pyridin-3-yl)methyl)piperazin-1-yl)acetyl)-2-azaspiro[4.4]nonan-7-yl)amino)-N-(6-(dimethylamino)pyridazin-3-yl)-6-(isopropylamino)nicotinamide]: in assay [1], the activity at 0.01 µM fell in the range of 55 to 85% and the activity at 0.1 µM was in the range of 55 to 85%. Further, the IC50 in assay [2] was less than 50 nM. Besides, in assay [3], the IC50 is not above 10 nM.

For `COc1cccc(NC(=O)c2ccc(NC(C)C)nc2NC2CC3(C2)CN(C(=O)CN2CCC4(CCN(c5ccc(Nc6ncc7c(C)c(C(C)=O)c(=O)n(C8CCCC8)c7n6)nc5)C4)C2)C3)n1` (stereo not shown) [CPD-532, 2-((2-(2-(7-(6-((6-acetyl-8-cyclopentyl-5-methyl-7-oxo-7,8-dihydropyrido[2,3-d]pyrimidin-2-yl)amino)pyridin-3-yl)-2,7-diazaspiro[4.4]nonan-2-yl)acetyl)-2-azaspiro[3.3]heptan-6-yl)amino)-6-(isopropylamino)-N-(6-methoxypyridin-2-yl)nicotinamide], in assay [1], the activity at 0.01 µM fell in the range of 55 to 85% and the activity at 0.1 µM is 55 to 85%. The IC50 in assay [2] is less than 50 nM. Besides, the IC50 in assay [3] is not above 10 nM.

As to `[2H]C([2H])([2H])Nc1ccc(C(=O)Nc2ccc(N(C)C)nn2)c(NC2CCN(CC(=O)N3CCN(Cc4ccc(Nc5ncc6c(C)c(C(C)=O)c(=O)n(C7CCCC7)c6n5)nc4)CC3)CC2)n1` [CPD-491], in assay [1], the activity at 0.01 µM was more than 85% and the activity at 0.1 µM was more than 85%. The IC50 in assay [2] was less than 50 nM. Moreover, in assay [3], the IC50 is not above 10 nM.

As to `CC(=O)c1c(C)c2cnc(Nc3ccc(N4CCN(CCNC(=O)C56CC(Nc7nc(NC(C)C)ccc7C(=O)Nc7ccc(N(C)C)nn7)(C5)C6)CC4)cn3)nc2n(C2CCCC2)c1=O` [CPD-506, 2-((3-((2-(4-(6-((6-acetyl-8-cyclopentyl-5-methyl-7-oxo-7,8-dihydropyrido[2,3-d]pyrimidin-2-yl)amino)pyridin-3-yl)piperazin-1-yl)ethyl)carbamoyl)bicyclo[1.1.1]pentan-1-yl)amino)-N-(6-(dimethylamino)pyridazin-3-yl)-6-(isopropylamino)nicotinamide], the activity at 0.01 µM in assay [1] is more than 85%. In addition, the activity at 0.1 µM in assay [1] was more than 85%. Also, the IC50 in assay [2] is less than 50 nM; in assay [3], not above 10 nM.

Usually inhibition stands for the share of the control response that was lost under treatment. A higher inhibition goes with a strong effect. Take `CNc1ccc(C(=O)Nc2ccc(N(C)C)nn2)c(NC2CC(CNC(=O)C(C)(C)N3CCN(c4ccc(Nc5ncc6c(C)c(C(C)=O)c(=O)n(C7CCCC7)c6n5)nc4)CC3)C2)n1` (stereo not shown) [CPD-167, 2-((3-((2-(4-(6-((6-acetyl-8-cyclopentyl-5-methyl-7-oxo-7,8-dihydropyrido[2,3-d]pyrimidin-2-yl)amino)pyridin-3-yl)piperazin-1-yl)-2-methylpropanamido)methyl)cyclobutyl)amino)-N-(6-(dimethylamino)pyridazin-3-yl)-6-(methylamino)nicotinamide]: the IC50 in assay [2] was less than 50 nM. In assay [4], this molecule returned an inhibition at 0.04 µM of more than 80% and an inhibition at 0.2 µM of more than 80%. Moreover, in assay [3], the IC50 is not above 10 nM.

Take `CNc1ccc(C(=O)Nc2cc(C)n(C)n2)c(NC2CC(CNC(=O)CN3CCN(c4ccc(Nc5ncc6c(C)c(C(C)=O)c(=O)n(C7CCCC7)c6n5)nc4)CC3)C2)n1` (stereo not shown) [CPD-165, 2-((3-((2-(4-(6-((6-acetyl-8-cyclopentyl-5-methyl-7-oxo-7,8-dihydropyrido[2,3-d]pyrimidin-2-yl)amino)pyridin-3-yl)piperazin-1-yl)acetamido)methyl)cyclobutyl)amino)-N-(1,5-dimethyl-1H-pyrazol-3-yl)-6-(methylamino)nicotinamide]: the IC50 in assay [2] was more than 100 nM. In assay [4], this molecule gave an inhibition at 0.04 µM of 50 to 80% and an inhibition at 0.2 µM of more than 80%. In addition, the IC50 in assay [3] was not above 10 nM.

`CNc1ccc(C(=O)Nc2ccc(N(C)C)nn2)c(NC2CCC3(C2)CN(C(=O)CCN2CCN(c4ccc(Nc5ncc6c(C)c(C(C)=O)c(=O)n(C7CCCC7)c6n5)nc4)CC2)C3)n1` (stereo not shown) [CPD-158, 2-((2-(3-(4-(6-((6-acetyl-8-cyclopentyl-5-methyl-7-oxo-7,8-dihydropyrido[2,3-d]pyrimidin-2-yl)amino)pyridin-3-yl)piperazin-1-yl)propanoyl)-2-azaspiro[3.4]octan-6-yl)amino)-N-(6-(dimethylamino)pyridazin-3-yl)-6-(methylamino)nicotinamide]: in assay [2], the IC50 was less than 50 nM. In assay [4], the inhibition at 0.04 µM fell in the range of 50 to 80% and the inhibition at 0.2 µM was more than 80%. The IC50 in assay [3] was not above 10 nM.

As for `CNc1ccc(C(=O)Nc2ccc(N(C)C)nn2)c(NC2CC3(C2)CN(C(=O)C(F)(F)CN2CCN(c4ccc(Nc5ncc6c(C)c(C(C)=O)c(=O)n(C7CCCC7)c6n5)nc4)CC2)C3)n1` [CPD-208, 2-((2-(3-(4-(6-((6-acetyl-8-cyclopentyl-5-methyl-7-oxo-7,8-dihydropyrido[2,3-d]pyrimidin-2-yl)amino)pyridin-3-yl)piperazin-1-yl)-2,2-difluoropropanoyl)-2-azaspiro[3.3]heptan-6-yl)amino)-N-(6-(dimethylamino)pyridazin-3-yl)-6-(methylamino)nicotinamide], in assay [2], the IC50 was less than 50 nM. In addition, in assay [4], the inhibition at 0.04 µM is 50 to 80% and the inhibition at 0.2 µM is more than 80%. For the same molecule, in assay [3], the IC50 was not above 10 nM.

For the molecule `CNc1ccc(C(=O)Nc2ccc(N(C)C)nn2)c(NC2CN(C(=O)CCN3CCN(c4ccc(Nc5ncc6c(C)c(C(C)=O)c(=O)n(C7CCCC7)c6n5)nc4)CC3)C2)n1` [CPD-186, 2-((1-(3-(4-(6-((6-acetyl-8-cyclopentyl-5-methyl-7-oxo-7,8-dihydropyrido[2,3-d]pyrimidin-2-yl)amino)pyridin-3-yl)piperazin-1-yl)propanoyl)azetidin-3-yl)amino)-N-(6-(dimethylamino)pyridazin-3-yl)-6-(methylamino)nicotinamide], the IC50 in assay [2] is more than 100 nM. In addition, in assay [4], the inhibition at 0.04 µM was in the range of 50 to 80% and the inhibition at 0.2 µM lay in the range of 50 to 80%. The IC50 in assay [3] lay within 10 to 50 nM.

For the molecule `CNc1ccc(C(=O)Nc2ccc(N(C)C)nn2)c(NC2CCN(C(=O)CN3CCN(c4ccc(Nc5ncc6c(C)c(C(C)=O)c(=O)n(C7CCCC7)c6n5)nc4)CC3)CC2)n1` [CPD-200, 2-((1-(2-(4-(6-((6-acetyl-8-cyclopentyl-5-methyl-7-oxo-7,8-dihydropyrido[2,3-d]pyrimidin-2-yl)amino)pyridin-3-yl)piperazin-1-yl)acetyl)piperidin-4-yl)amino)-N-(6-(dimethylamino)pyridazin-3-yl)-6-(methylamino)nicotinamide], the IC50 in assay [2] was 50 to 100 nM. In assay [4], this molecule showed an inhibition at 0.04 µM of 50 to 80% and an inhibition at 0.2 µM of 50 to 80%. Besides, in assay [3], the IC50 is not above 10 nM.

As for `CNc1ccc(C(=O)Nc2ccc(N(C)C)nn2)c(NC2CC3(C2)CC(OC(C)C(=O)N2CCN(c4ccc(Nc5ncc6c(C)c(C(C)=O)c(=O)n(C7CCCC7)c6n5)nc4)CC2)C3)n1` (stereo not shown) [CPD-189, 2-((6-((1-(4-(6-((6-acetyl-8-cyclopentyl-5-methyl-7-oxo-7,8-dihydropyrido[2,3-d]pyrimidin-2-yl)amino)pyridin-3-yl)piperazin-1-yl)-1-oxopropan-2-yl)oxy)spiro[3.3]heptan-2-yl)amino)-N-(6-(dimethylamino)pyridazin-3-yl)-6-(methylamino)nicotinamide], in assay [2], the IC50 is more than 100 nM. In addition, in assay [4], the inhibition at 0.04 µM lay in the range of 50 to 80% and the inhibition at 0.2 µM was 50 to 80%. The half-maximal inhibitory concentration (IC50) in assay [3] lay within 10 to 50 nM.

With `CNc1ccc(C(=O)Nc2ccc(N(C)C)nn2)c(NCC2CCN(C(=O)CCN3CCN(c4ccc(Nc5ncc6c(C)c(C(C)=O)c(=O)n(C7CCCC7)c6n5)nc4)CC3)CC2)n1` [CPD-146, 2-(((1-(3-(4-(6-((6-acetyl-8-cyclopentyl-5-methyl-7-oxo-7,8-dihydropyrido[2,3-d]pyrimidin-2-yl)amino)pyridin-3-yl)piperazin-1-yl)propanoyl)piperidin-4-yl)methyl)amino)-N-(6-(dimethylamino)pyridazin-3-yl)-6-(methylamino)nicotinamide], in assay [2], the IC50 is less than 50 nM. In assay [4], this molecule came in with an inhibition at 0.04 µM of 50 to 80% and an inhibition at 0.2 µM of more than 80%. The IC50 in assay [3] is not above 10 nM.
